Data on one compound can be found in US20080187922A1 (priority 2006, published 2008).

Molecules are shown by their SMILES. Values after ≈ are worked out from the molar mass of the structure shown.

For the test, the system named is Mycobacterium smegmatis recombinant strains. Nature of the test: microbe, parasite or virus in culture. Format: cell-based. The settings on record: Mycolicibacterium smegmatis, read-out: RFP MIC.

As to `CO[C@H]1/C=C/O[C@@]2(C)Oc3c(C)c(O)c4c(O)c(c(/C=N/N5CCN(C)CC5)c(O)c4c3C2=O)NC(=O)/C(C)=C\C=C\[C@H](C)[C@H](O)[C@@H](C)[C@@H](O)[C@@H](C)[C@H](OC(C)=O)[C@@H]1C` [RFP, 3-(4-Methylpiperazinyliminomethyl)-rifamycin], the MIC came out at 150 µg/mL (≈ 182 µM).
